Article PMC3463759 (Clinical cancer research : an official journal of the …, 2012)
Where two headings read alike, the source gives them in different places. One block for each molecule: values may come before it.

What was measured:
[1] = for reduction of Cmax: paclitaxel with dasatinib (Cycle 2 Day 1) vs paclitaxel alone (Cycle 1 Day 1)
clinical = conditions: human, plasma, intravenous
[2] = paclitaxel alone, Cycle 1 Day 1, N=20
[3] = paclitaxel alone, Cycle 1 Day 1, N=20, dose-normalized to 175 mg/m^2
[4] = paclitaxel and dasatinib, Cycle 2 Day 1, N=18
[5] = paclitaxel and dasatinib, Cycle 2 Day 1, N=18, dose-normalized to 175 mg/m^2
[6] = paclitaxel with dasatinib vs paclitaxel alone

inter-individual variability (%CV) for exposure ([1]; in vivo): 40–70%
T-HALF, Mean (SD) [1, 2]: 1.26 h
AUC(0-T), Geo Mean (%CV) [1, 3]: 732 (53) ng•h/mL
AUC(INF), Geo Mean (%CV) [1, 3]: 771 (53) ng•h/mL
Cmax, Geo Mean (%CV) [1, 3]: 349 (44) ng/mL
T-HALF, Mean (SD) ([1]; paclitaxel alone, Cycle 1 Day 1, N=20, listed as 6-OH Paclitaxel): 1.26 (0.75) h
M/P, metabolite to parent ratio based on dose normalized AUC(INF), Mean (SD) ([1]; paclitaxel alone, N=20): 0.06 (0.04)
T-HALF, Mean (SD) [1, 4]: 0.94 h
AUC(0-T), Geo Mean (%CV) [1, 5]: 562 (68) ng•h/mL
AUC(INF), Geo Mean (%CV) [1, 5]: 615 (68) ng•h/mL
Cmax, Geo Mean (%CV) [1, 5]: 260 (58) ng/mL
T-HALF, Mean (SD) ([1]; paclitaxel and dasatinib, Cycle 2 Day 1, N=18, listed as 6-OH Paclitaxel): 0.94 (0.47) h
M/P, metabolite to parent ratio based on dose normalized AUC(INF), Mean (SD) ([1]; paclitaxel and dasatinib, N=18): 0.05 (0.02)
reduction of Cmax [1]: 25%
reduction of geometric mean AUC(0-T) [1, 6]: 23%
reduction of geometric mean AUC(INF) [1, 6]: 20%
reduction of mean T-HALF [1, 6]: 25%
Structure (SMILES): CC(=O)O[C@H]1C(=O)[C@@]2(C)[C@H]([C@H](OC(=O)c3ccccc3)[C@]3(O)C[C@H](OC(=O)[C@H](O)[C@@H](NC(=O)c4ccccc4)c4ccccc4)C(C)=C1C3(C)C)[C@]1(OC(C)=O)CO[C@@H]1[C@@H](O)[C@@H]2O [6-OH paclitaxel]

differences in mean T-HALF, MRT(INF), CLt, and Vss ([1]; paclitaxel alone vs paclitaxel in combination with dasatinib): less than 20%
CLt, Mean (SD) [1, 2]: 20.9 (6.3) L/h
T-HALF, Mean (SD) [1, 2]: 11.7 (1.6) h
CLt, Mean (SD) [1, 4]: 24.3 (6.0) L/h
T-HALF, Mean (SD) [1, 4]: 11.7 (3.8) h
reduction of Cmax [1]: 19%
reduction of geometric mean AUC(0-T) [1, 6]: 15%
reduction of geometric mean AUC(INF) [1, 6]: 14%
MRT inf (clinical): 6.9 h
Vd (clinical): 163 L
AUC(0-inf) (clinical; 175 mg/m^2): 16100 ng·h/mL
AUC(0-t) (clinical; 175 mg/m^2): 15700 ng·h/mL
Cmax (clinical; 175 mg/m^2): 4820 ng/mL
MRT inf (clinical; 175 mg/m^2): 6.7 h
Structure (SMILES): CC(=O)O[C@H]1C(=O)[C@@]2(C)[C@H]([C@H](OC(=O)c3ccccc3)[C@]3(O)C[C@H](OC(=O)[C@H](O)[C@@H](NC(=O)c4ccccc4)c4ccccc4)C(C)=C1C3(C)C)[C@]1(OC(C)=O)CO[C@@H]1C[C@@H]2O [paclitaxel]
